Experimental data: ChEMBL document CHEMBL1141729, “Two new cytotoxic compounds from Tapirira guianensis” (J Nat Prod, 1998)
In brackets after ≈: the same amount, converted by molar mass.

Assays:
Format in all cases: functional, cell-based
KB = assay: Cytotoxicity against human KB cells
LNCaP = assay: Cytotoxicity against human LNCAP cells
Lu1 = assay: Cytotoxicity against human Lu1 cells
Col2 = assay: Cytotoxicity against human Col2 cells
[1] = Cytotoxicity against vinblastine-resistant human KBV1 cells in presence of vinblastine; conditions: KB-V1
[2] = Cytotoxicity against human BC1 cells
[3] = Cytotoxicity against vinblastine-resistant human KBV1 cells; conditions: KB-V1

SMILES	IC50 (KB)	IC50 (LNCaP)	IC50 (Lu1)	IC50 (Col2)	IC50 [1]	IC50 [2]	IC50 [3]
CCCCCC/C=C\CCCCCCCCCc1cc(O)ccc1O	0.5 µg/mL (≈ 1.44 µM)	0.2 µg/mL (≈ 0.577 µM)	0.3 µg/mL (≈ 0.866 µM)	0.8 µg/mL (≈ 2.31 µM)	0.5 µg/mL	1.3 µg/mL (≈ 3.75 µM)	0.6 µg/mL (≈ 1.73 µM)
CCCCCC/C=C\CCCCCCCCC[C@]1(O)C=CC(=O)[C@@H](O)C1	1.5 µg/mL (≈ 4.11 µM)	0.3 µg/mL (≈ 0.823 µM)	4.4 µg/mL (≈ 12.1 µM)	1.8 µg/mL (≈ 4.94 µM)	4.1 µg/mL	4.3 µg/mL (≈ 11.8 µM)	4.2 µg/mL (≈ 11.5 µM)
